This is an account of results in ChEMBL document CHEMBL1147055, “Noxious compounds activate TRPA1 ion channels through covalent modification of cysteines” (Nature, 2007).

For experiment [1], the target named is Transient receptor potential cation channel subfamily A member 1 (Homo sapiens, UniProt O75762). The experiment in a line: Activation of TRPA1.
Experiment [2] concerns the target Transient receptor potential cation channel subfamily A member 1 (Mus musculus) (UniProt Q8BLA8). The experiment is described as follows: Binding affinity to mouse TRPA1 expressed in HEK293T cells at 100 uM assessed as covalent protein modification. The format is cell-based. The following applies: HEK-293T.
For experiment [3] the target is unchanged. The experiment in a line: Activation of mouse TRPA1 expressed in CHO cells assessed as increase in intracellular calcium level. The format is cell-based. A general note: Calcium assays in cells follow changes in intracellular calcium, usually with a dye or a luminescent sensor.
For experiment [4] the target is unchanged. The experiment is described as follows: Activation of mouse TRPA1 expressed in HEK293T cells at 50 uM assessed as activation of cation conductance by electrophysiology. Type of experiment: cell-based. The conditions noted are these: HEK-293T.
For experiment [5] the target is unchanged. The experiment in a line: Activation of mouse TRPA1 expressed in HEK293T cells at 50 uM in presence of dithiothreitol by electrophysiology. The format is cell-based. The following applies: HEK-293T.
For experiment [6] the target is unchanged. The experiment is described as follows: Activation of mouse TRPA1 expressed in CHO cells at 100 uM by calcium imaging FLIPR assay. The format is cell-based.
Experiment [7] shares this target. The experiment is described as follows: Activation of mouse TRPA1 expressed in HEK293T cells at 100 uM assessed as activation of cation conductance by electrophysiology. Type of experiment: cell-based. The following applies: HEK-293T.
Experiment [8] shares this target. The experiment is described as follows: Reversal of activation of mouse TRPA1 expressed in HEK293T cells at 400 uM in presence of dithiothreitol by electrophysiology. The format is cell-based. The following applies: HEK-293T.
Experiment [9] shares this target. The experiment in a line: Activation of mouse TRPA1 expressed in HEK293T cells at 30 uM assessed as activation of cation conductance by electrophysiology. Type of experiment: cell-based. The following applies: HEK-293T.
Experiment [10] concerns Transient receptor potential cation channel subfamily A member 1 (Mus musculus), Q8BLA8 [C415S]. The experiment in a line: Activation of mouse TRPA1 C415S mutant expressed in CHO cells at 100 uM by calcium imaging FLIPR assay. Type of experiment: cell-based.
In experiment [11] the test system is Transient receptor potential cation channel subfamily A member 1 (Mus musculus), Q8BLA8 [C622S]. The experiment in a line: Activation of mouse TRPA1 C622S mutant expressed in CHO cells at 100 uM by calcium imaging FLIPR assay. Type of experiment: cell-based.
Experiment [12] deals with Transient receptor potential cation channel subfamily A member 1 (Mus musculus), Q8BLA8 [C422S]. The experiment in a line: Activation of mouse TRPA1 C422S mutant expressed in CHO cells at 100 uM by calcium imaging FLIPR assay. Type of experiment: cell-based.

Calls of active or inactive are those of the source. The rule behind the calls is not given here.

Transient receptor potential cation channel subfamily A member 1 (Mus musculus), sequence (Q8BLA8 whole entry): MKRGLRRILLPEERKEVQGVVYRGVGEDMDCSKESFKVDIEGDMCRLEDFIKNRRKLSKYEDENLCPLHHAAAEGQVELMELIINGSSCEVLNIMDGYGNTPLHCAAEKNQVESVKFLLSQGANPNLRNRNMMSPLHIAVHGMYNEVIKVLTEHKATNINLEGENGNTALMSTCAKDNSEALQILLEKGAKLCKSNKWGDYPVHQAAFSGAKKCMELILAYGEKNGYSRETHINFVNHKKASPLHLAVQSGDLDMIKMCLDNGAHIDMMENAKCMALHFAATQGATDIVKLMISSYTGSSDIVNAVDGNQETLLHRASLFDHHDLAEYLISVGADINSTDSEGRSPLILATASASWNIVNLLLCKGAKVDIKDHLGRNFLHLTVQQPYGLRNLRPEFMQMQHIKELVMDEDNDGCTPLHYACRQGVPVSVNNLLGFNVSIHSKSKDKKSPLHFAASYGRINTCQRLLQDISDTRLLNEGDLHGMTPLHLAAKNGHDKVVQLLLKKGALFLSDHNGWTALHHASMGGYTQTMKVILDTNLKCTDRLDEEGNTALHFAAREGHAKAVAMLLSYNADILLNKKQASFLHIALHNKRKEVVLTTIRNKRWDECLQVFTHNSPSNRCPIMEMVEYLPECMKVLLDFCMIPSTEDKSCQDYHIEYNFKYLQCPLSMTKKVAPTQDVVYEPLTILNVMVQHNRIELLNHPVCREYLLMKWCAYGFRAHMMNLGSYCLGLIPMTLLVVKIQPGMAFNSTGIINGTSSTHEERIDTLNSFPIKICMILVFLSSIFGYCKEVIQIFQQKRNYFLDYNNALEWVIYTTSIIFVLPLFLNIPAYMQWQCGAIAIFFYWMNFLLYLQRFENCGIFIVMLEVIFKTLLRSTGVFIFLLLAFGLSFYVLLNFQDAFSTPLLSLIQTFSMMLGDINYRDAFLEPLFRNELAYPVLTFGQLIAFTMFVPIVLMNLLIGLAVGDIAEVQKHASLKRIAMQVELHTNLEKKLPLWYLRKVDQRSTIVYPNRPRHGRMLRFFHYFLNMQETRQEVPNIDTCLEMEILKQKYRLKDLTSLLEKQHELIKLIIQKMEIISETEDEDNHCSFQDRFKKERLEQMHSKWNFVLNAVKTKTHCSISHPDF
Transient receptor potential cation channel subfamily A member 1, sequence (O75762 whole entry): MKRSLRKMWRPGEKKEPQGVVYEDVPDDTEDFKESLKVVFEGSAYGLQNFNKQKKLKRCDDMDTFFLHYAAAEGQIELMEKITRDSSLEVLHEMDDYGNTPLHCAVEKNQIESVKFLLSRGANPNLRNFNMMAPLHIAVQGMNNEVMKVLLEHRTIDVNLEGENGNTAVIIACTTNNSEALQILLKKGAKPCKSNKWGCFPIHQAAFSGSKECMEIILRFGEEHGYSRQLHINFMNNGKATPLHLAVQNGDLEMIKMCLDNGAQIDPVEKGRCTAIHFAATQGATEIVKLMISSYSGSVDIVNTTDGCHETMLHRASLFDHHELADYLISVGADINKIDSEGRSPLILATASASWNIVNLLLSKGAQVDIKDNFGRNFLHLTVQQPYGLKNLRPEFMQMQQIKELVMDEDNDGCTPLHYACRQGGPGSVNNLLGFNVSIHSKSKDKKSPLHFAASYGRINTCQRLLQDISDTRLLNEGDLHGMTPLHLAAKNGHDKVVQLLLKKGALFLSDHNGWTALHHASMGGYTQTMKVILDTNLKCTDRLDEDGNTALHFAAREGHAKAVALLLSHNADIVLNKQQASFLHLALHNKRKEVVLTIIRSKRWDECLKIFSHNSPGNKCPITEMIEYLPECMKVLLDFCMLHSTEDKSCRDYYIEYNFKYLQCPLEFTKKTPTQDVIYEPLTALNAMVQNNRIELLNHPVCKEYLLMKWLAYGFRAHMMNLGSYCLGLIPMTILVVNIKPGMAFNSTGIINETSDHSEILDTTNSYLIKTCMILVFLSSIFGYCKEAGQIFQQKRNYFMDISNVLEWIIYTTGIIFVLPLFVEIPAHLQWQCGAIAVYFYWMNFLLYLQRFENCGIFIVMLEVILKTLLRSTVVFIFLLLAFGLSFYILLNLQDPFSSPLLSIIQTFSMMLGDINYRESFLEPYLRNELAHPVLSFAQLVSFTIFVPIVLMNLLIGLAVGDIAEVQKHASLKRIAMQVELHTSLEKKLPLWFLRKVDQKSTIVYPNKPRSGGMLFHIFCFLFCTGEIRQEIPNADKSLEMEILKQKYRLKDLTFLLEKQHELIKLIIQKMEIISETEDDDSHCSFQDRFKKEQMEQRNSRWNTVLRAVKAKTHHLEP
Transient receptor potential cation channel subfamily A member 1 (Mus musculus), Q8BLA8 [C415S], sequence (Q8BLA8 whole entry C415S): as the sequence (Q8BLA8 whole entry) above, with C415S counted along it
Transient receptor potential cation channel subfamily A member 1 (Mus musculus), Q8BLA8 [C422S], sequence (Q8BLA8 whole entry C422S): as the sequence (Q8BLA8 whole entry) above, with C422S counted along it
Transient receptor potential cation channel subfamily A member 1 (Mus musculus), Q8BLA8 [C622S], sequence (Q8BLA8 whole entry C622S): as the sequence (Q8BLA8 whole entry) above, with C622S counted along it

As usually defined, the EC50 is the midpoint of the concentration-response curve. High values mean weaker potency, low ones greater potency. In [1], `CC/C=C/C=O` [PENTENAL] registered an EC50 of 5 µM.

Molecule `C#CCN=C=S` [PROPARGYL ISOTHIOCYANATE] gave an EC50 in [1] of 18.4 µM. In addition, the result in [2] was Active.

`CC(=O)/C=C1/C(=O)N(C)c2ccccc21`: the result in experiment [3], in [4] and in [5] was Active. The molecule further had an EC50 in experiment [1] of 0.8 µM.

With `CC(=O)CC1(O)C(=O)N(C)c2ccccc21` (stereo not drawn), in experiment [1], the result was inactive.

For the molecule `O=C1CCC(=O)N1O`, the result in experiment [6] was inactive.

The molecule `C#CCCCCNC(=O)CI` [IODOACETAMIDE ALKYNE] yielded an EC50 in experiment [1] of 134 µM. Further, the outcome in [2] was Active.

`C#CCN1C(=O)/C(=C/C(C)=O)c2ccccc21`: the response in [1] was half-maximal at 0.1 µM (EC50). In addition, the result in experiment [2] was Active.

In the case of `O=C1NC(c2cccc([N+](=O)[O-])c2)=CCN1c1ccccc1O`, in [7], the result was Active.

As for `CCC=O`, in experiment [1], the outcome was inactive.

For `CS(=O)(=O)SCCN`, the outcome in experiment [3] and in [8] was Active. In experiment [1], this molecule came in with an EC50 of 1.58 µM.

Regarding `C=CCN=C=S`, the result in experiment [3] and in experiment [9] was Active.

With `OC/C=C/c1ccccc1`, the outcome in [1] was inactive.

`C=CC=O` [ACROLEIN]: the EC50 in [1] was 5 µM.

As for `O=C/C=C/c1ccccc1`, the result in experiment [10], in experiment [11] and in [12] was inactive. In experiment [1], this molecule registered a half-maximal effective concentration (EC50) of 19 µM.

Regarding `NC(=O)CI` [IODOACETAMIDE], the outcome in experiment [3] was Active. In experiment [1], this molecule came in with an EC50 of 357 µM.
